Laboratory results: patent publication US7655816B2, “Method for stabilizing menthyl lactate” (Millennium Specialty Chemicals, priority 2007, dated 2010)
Blank lines part the entries; values can stand above or below the molecule they belong to.

Type: physicochemical
Details: for GC purity after storage / acid number after storage / odor after storage / appearance after storage: after storage for 39 months in a closed glass jar
Text: Precipitation according to the method of the invention provides menthyl lactate having improved stability compared with that of an unprecipitated sample. By “improved stability,” we mean that one or more important physical properties of the menthyl lactate becomes more constant as a function of time as a consequence of precipitation when compared with menthyl lactate that has not been precipitated according to the method. Important physical properties include, without limitation, appearance, dimensional stability, color, texture, organoleptic properties (odor, flavor), melting point, acid number, GC purity, optical rotation, pH, solubility, and the like. Preferably, the ML retains its desirable physical property or properties even after prolonged storage. “Prolonged” depends on the particular application, but it is preferably at least one week, more preferably at least one month, and most preferably at least one year.
After storage for 39 months in a closed glass jar, the product is evaluated for quality.
A sample of solid menthyl lactate from the same batch that was used in Example 1 is stored under similar conditions for the same 39 months. […] Mp: 39.3° C.; GC purity: <96%; acid number: 32 mg KOH/g.

SMILES: CC1CCC(C(C)C)C(OC(=O)C(C)O)C1 (stereo not drawn) [compound 2, menthyl lactate]
- melting point after storage: 39.3 °C
- GC purity after storage: < 96%
- acid number after storage: 32 mg KOH/g
- odor after storage: strong, pungent acidic odor

SMILES: CC1CCC(C(C)C)C(OC(=O)C(C)O)C1 (stereo not drawn) [Comparative Example 4, menthyl lactate]
- melting point after storage: 43.6 °C
- acid number after storage: 0.27 mg KOH/g
- odor after storage: some deterioration of odor quality

SMILES: CC1CCC(C(C)C)C(OC(=O)C(C)O)C1 (stereo not drawn) [compound 5, menthyl lactate]
- melting point after storage: 43.7 °C
- GC purity after storage: 97%
- acid number after storage: 0.32 mg KOH/g
- odor after storage: strong, pungent acidic odor

Continued, values first:

- melting point after storage: 43.9 °C
- GC purity after storage: ≥ 99.8%
- acid number after storage: 0.15 mg KOH/g
- appearance after storage: fine, white crystalline powder
- odor after storage: faint, minty
SMILES: CC1CCC(C(C)C)C(OC(=O)C(C)O)C1 (stereo not drawn) [Example 1, menthyl lactate]

- melting point after storage: 36.7 °C
- GC purity after storage: 92%
- acid number after storage: 20 mg KOH/g
- appearance after storage: shrinks
- odor after storage: strong, pungent acidic odor
SMILES: CC1CCC(C(C)C)C(OC(=O)C(C)O)C1 (stereo not drawn) [Comparative Example 3, menthyl lactate]
